Laboratory results: patent US20070128217A1 (priority 2003, published 2007)

Key:
[1] = test system: antibodies in sera from SARS patients (sera 1a, 1b, 2, 6, 37, 62, London, SARS-yellow, SARS-green); type: binding, human; design: Binding of serum 6 to linear peptides of protein X1 of SARS-CoV Urbani / Binding of serum 37 to linear peptides of protein X1 of SARS-CoV Urbani / Binding of serum 6 to looped/cyclic peptide (PEPSCAN-ELISA) / Binding of serum 37 to looped/cyclic peptide (PEPSCAN-ELISA) / Binding of serum 37 to looped/cyclic peptides of protein X1 of SARS-CoV Urbani / Binding of serum 6 to linear peptides of protein X2 / Binding of serum 37 to linear peptides of protein X2 / Binding of serum 37 to looped/cyclic peptides of protein X2 of SARS-CoV Urbani / Binding of serum 6 to linear peptides of protein M of SARS-CoV Urbani / Binding of serum 37 to linear peptides of protein M of SARS-CoV Urbani / Binding of serum 6 to looped/cyclic peptides of protein M of SARS-CoV Urbani / Binding of serum 37 to looped/cyclic peptides of protein M of SARS-CoV Urbani / Binding of serum 6 to linear peptides of protein X3 of SARS-CoV Urbani / Binding of serum 37 to linear peptides of protein X3 of SARS-CoV Urbani / Binding of serum 37 to looped/cyclic peptides of protein X3 of SARS-CoV Urbani / Binding of serum 6 to linear peptides of protein X4 of SARS-CoV Urbani / Binding of serum 37 to linear peptides of protein X4 of SARS-CoV Urbani / Binding of serum 37 to looped/cyclic peptides of protein X4 of SARS-CoV Urbani / Binding of serum 6 to linear peptides of protein X5 of SARS-CoV Urbani / Binding of serum 37 to linear peptides of protein X5 of SARS-CoV Urbani / Binding of serum 37 to looped/cyclic peptides of protein X5 of SARS-CoV Urbani / Binding of serum 6 to linear peptides of protein N of SARS-CoV Urbani / Binding of serum 37 to linear peptides of protein N of SARS-CoV Urbani / Binding of serum 6 to linear peptide (PEPSCAN-ELISA) / Binding of serum 1a to looped/cyclic peptides of protein N of SARS-CoV Urbani / Binding of serum 1b to looped/cyclic peptides of protein N of SARS-CoV Urbani / Binding of serum 2 to looped/cyclic peptides of protein N of SARS-CoV Urbani / Binding of serum 6 to looped/cyclic peptides of protein N of SARS-CoV Urbani / Binding of serum 37 to looped/cyclic peptides of protein N of SARS-CoV Urbani / Binding of serum 62 to looped/cyclic peptides of protein N of SARS-CoV Urbani / Binding of serum London to looped/cyclic peptides of protein N of SARS-CoV Urbani / Binding of serum SARS-green to looped/cyclic peptides of protein N of SARS-CoV Urbani: unit not given here
[2] = test system: control sera (pooled serum of ten healthy LUMC hospital workers; commercial negative donor pooled serum from the Dutch bloodbank); type: binding, human
[3] = test system: rabbit serum obtained by immunizing a rabbit with the SARS-CoV strain Frankfurt 1; type: binding; design: Binding of a rabbit serum to linear peptides / Binding of a rabbit serum to looped peptides / Rabbit serum linear peptides / Rabbit serum looped peptides / Binding of a rabbit serum to linear peptides of protein N of SARS-CoV Urbani (Rabbit serum linear peptides) / Binding of a rabbit serum to looped/cyclic peptides of protein N of SARS-CoV Urbani (Rabbit serum looped peptides): unit not given here
[4] = test system: recombinant human anti-SARS-CoV antibody 03-018; type: binding; design: Binding of antibody 03-018 to linear peptides of the N protein of SARS-CoV Urbani / Binding of antibody 03-018 to looped/cyclic peptides of the N protein of SARS-CoV Urbani: unit not given here

Sequence	Binding of serum 1a to linear peptides of protein N of SARS-CoV Urbani [1]	Binding of serum 1a to looped/cyclic peptides of protein N of SARS-CoV Urbani [1]	Binding of serum 1b to linear peptides of protein N of SARS-CoV Urbani [1]	Binding of serum 1b to looped/cyclic peptides of protein N of SARS-CoV Urbani [1]	Binding of serum 2 to linear peptides of protein N of SARS-CoV Urbani [1]	Binding of serum 2 to looped/cyclic peptides of protein N of SARS-CoV Urbani [1]	Binding of serum 6 to linear peptides of protein N of SARS-CoV Urbani [1]	Binding of serum 6 to looped/cyclic peptides of protein N of SARS-CoV Urbani [1]	Binding of serum 37 to linear peptides of protein N of SARS-CoV Urbani [1]	Binding of serum 37 to looped/cyclic peptides of protein N of SARS-CoV Urbani [1]	Binding of serum 62 to linear peptides of protein N of SARS-CoV Urbani [1]	Binding of serum 62 to looped/cyclic peptides of protein N of SARS-CoV Urbani [1]	Binding of serum London to linear peptides of protein N of SARS-CoV Urbani [1]	Binding of serum London to looped/cyclic peptides of protein N of SARS-CoV Urbani [1]	Binding of serum SARS-green to linear peptides of protein N of SARS-CoV Urbani [1]	Binding of serum SARS-green to looped/cyclic peptides of protein N of SARS-CoV Urbani [1]	Binding of serum SARS-yellow to linear peptides of protein N of SARS-CoV Urbani [1]	Binding of serum SARS-yellow to looped/cyclic peptides of protein N of SARS-CoV Urbani [1]	Control Serum Blood-Bank Looped peptides [2]	Control serum Blood-bank linear peptides [2]	also measured
PAADMDDFSRQLQNS	0.3	0.3	0.2	0.1	0.2	0.3	0.6	1.1	0.8	0.6	0.7	0.3	0.6	0.3	0.3	0.3	0.5	0.3	0.3	0.8	Control serum LUMC linear peptides [2]: 0.8; Control serum LUMC looped peptides [2]: 0.3; Binding of a rabbit serum to linear peptides of protein N of SARS-CoV Urbani (Rabbit serum linear peptides) [3]: 0.2; Binding of a rabbit serum to looped/cyclic peptides of protein N of SARS-CoV Urbani (Rabbit serum looped peptides) [3]: 0.3; Binding of antibody 03-018 to linear peptides of the N protein of SARS-CoV Urbani [4]: 0.1; Binding of antibody 03-018 to looped/cyclic peptides of the N protein of SARS-CoV Urbani [4]: 0.2
KHWPQIAQFAPSASA	0.3	0.3	0.1	0.1	0.3	0.3	0.2	0.3	0.8	0.2	0.7	0.4	0.7	0.5	0.6	0.4	0.8	0.2	0.7	0.8	Control serum LUMC linear peptides [2]: 0.7; Control serum LUMC looped peptides [2]: 0.6; Binding of a rabbit serum to linear peptides of protein N of SARS-CoV Urbani (Rabbit serum linear peptides) [3]: 0.2; Binding of a rabbit serum to looped/cyclic peptides of protein N of SARS-CoV Urbani (Rabbit serum looped peptides) [3]: 0.0; Binding of antibody 03-018 to linear peptides of the N protein of SARS-CoV Urbani [4]: 0.1; Binding of antibody 03-018 to looped/cyclic peptides of the N protein of SARS-CoV Urbani [4]: 0.2
VTLLPAADMDDFSRQ	0.3	0.3	0.1	0.1	0.2	0.2	0.1	0.0	0.6	0.1	0.6	0.4	0.6	0.1	0.3	0.2	0.6	0.2	0.1	0.5	Control serum LUMC linear peptides [2]: 0.5; Control serum LUMC looped peptides [2]: 0.4; Binding of a rabbit serum to linear peptides of protein N of SARS-CoV Urbani (Rabbit serum linear peptides) [3]: 0.0; Binding of a rabbit serum to looped/cyclic peptides of protein N of SARS-CoV Urbani (Rabbit serum looped peptides) [3]: 0.0; Binding of antibody 03-018 to linear peptides of the N protein of SARS-CoV Urbani [4]: 0.1; Binding of antibody 03-018 to looped/cyclic peptides of the N protein of SARS-CoV Urbani [4]: 0.2
VTPSGTWLTYHGAIK	0.3	0.2	0.1	0.1	0.2	0.2	0.2	0.1	0.7	0.4	0.8	0.3	0.7	0.3	0.5	0.0	0.5	0.2	0.3	0.8	Control serum LUMC linear peptides [2]: 0.6; Control serum LUMC looped peptides [2]: 0.3; Binding of a rabbit serum to linear peptides of protein N of SARS-CoV Urbani (Rabbit serum linear peptides) [3]: 0.1; Binding of a rabbit serum to looped/cyclic peptides of protein N of SARS-CoV Urbani (Rabbit serum looped peptides) [3]: 0.1; Binding of antibody 03-018 to linear peptides of the N protein of SARS-CoV Urbani [4]: 0.1; Binding of antibody 03-018 to looped/cyclic peptides of the N protein of SARS-CoV Urbani [4]: 0.2
